From patent US10064831B2, “Active substances and cosmetic or dermatological preparations containing said active substances for the care of the skin of patients of diabetes mellitus” (BEIERSDORF AG, priority 2015, dated 2018) come the findings set out here.

For the assay, the system named is glyoxalases. In words: induction of glyoxalase activity in skin cells. It counts as cell-based. Particulars: no method or numbers given.

As to `C=CC(C)(C)c1cc(/C=C/C(=O)c2ccc(O)cc2)c(OC)cc1O` [licochalcone A], the “activity of glyoxalases induced in skin cells” value is recorded as “enhanced activity of glyoxalases”.
